Test results reported in US6620828B2, “Thiazole compounds and pharmaceutical compositions for inhibiting protein kinases and methods for their use” (Agouron Pharmaceuticals, Inc., priority 1999, dated 2003).

How the values were obtained:
Format in all cases: biochemical
[1] = target: T1, phosphorylated VEGF-R2Δ50 (FLVK-P) (Homo sapiens, UniProt P35968, DEL940-989/E990V); assay: VEGF-R2 coupled spectrophotometric (FLVK-P) assay; conditions: read-out: VEGF % inhibition at 20 μM, 20 μM; combinatorial library compounds
T1 construct: VEGF-R2Δ50 contains residues 806-939 and 990-1171; made in house; host or cells: baculovirus/insect cells
Procedure, shortened: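 Baculovirus-expressed human VEGF-R2Δ50 (residues 806-939/990-1171, E990V) was autophosphorylated with 3 mM ATP, 40 mM MgCl2 for 2 h at 4° C. ADP formation was coupled via PK/LDH to NADH oxidation, read at 340 nm, with 5.1 mM poly(E4Y1), 1 mM ATP, 25 mM MgCl2, Hepes pH 7.5. Ki came from activity across compound concentrations.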

FL-CHK1 = target: T2, FL-CHK1 (Homo sapiens, UniProt O14757); assay: CHK1 assay; conditions: 20 μM; combinatorial library compounds
T2 construct: C-terminally His-tagged full-length human CHK1 (FL-CHK1); 6xHis (C); made in house; host or cells: baculovirus/insect cells
T2 sequence (O14757 1-476): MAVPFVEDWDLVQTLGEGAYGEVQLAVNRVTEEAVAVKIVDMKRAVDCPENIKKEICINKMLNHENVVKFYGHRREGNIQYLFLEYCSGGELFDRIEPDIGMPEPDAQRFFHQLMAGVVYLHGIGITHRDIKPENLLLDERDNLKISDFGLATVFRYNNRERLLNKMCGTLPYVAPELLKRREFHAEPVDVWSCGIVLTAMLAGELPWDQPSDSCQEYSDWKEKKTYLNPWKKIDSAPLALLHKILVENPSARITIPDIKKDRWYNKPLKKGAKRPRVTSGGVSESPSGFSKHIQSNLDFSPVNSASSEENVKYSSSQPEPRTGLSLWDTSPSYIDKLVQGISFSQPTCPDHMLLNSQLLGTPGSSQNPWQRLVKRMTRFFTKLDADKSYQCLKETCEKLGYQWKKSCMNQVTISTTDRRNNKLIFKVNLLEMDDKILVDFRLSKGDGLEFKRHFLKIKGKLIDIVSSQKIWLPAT
Procedure, shortened: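 Full-length human CHK1 with C-terminal 6×His tag, made in baculovirus/insect cells, 10 nM, phosphorylating 0.125 mM Syntide-2 with 0.15 mM ATP in 50 mM Tris pH 7.5, 25 mM MgCl2, 400 mM NaCl. PK/LDH-coupled NADH oxidation read at 340 nm. Ki from initial rates over varied compound concentrations.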

CDK4/Cyclin D3 complex = target: T3, CDK4/Cyclin D3 complex (Homo sapiens, UniProt P11802); assay: CDK4/Cyclin D assay; conditions: 1.0 μM; combinatorial library compounds
T3 construct: made in house; host or cells: insect cells co-infected with baculovirus vectors
Procedure, shortened: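 Insect-cell-expressed CDK4/cyclin D3 (50 nM) phosphorylating His-tagged Rb fragment (residues 386-928) with 25 μM [^32P]ATP in HEPES pH 7.4, MgCl2, 2% DMSO; 20 min at 30 °C, EDTA stop. Filter-captured 32P by phosphorimager; apparent Ki from competitive or tight-binding inhibition fits.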

CDK2/Cyclin A complex = CDK2/Cyclin A complex (Homo sapiens, UniProt P24941); assay: CDK2/Cyclin A assay; conditions: 1.0 μM; combinatorial library compounds
Procedure, shortened: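 Radiometric assay: 150 nM CDK2/cyclin A (insect-cell CDK2, truncated cyclin A) phosphorylates His-tagged Rb fragment (residues 386-928) with 25 μM ATP plus [32P]ATP, pH 7.4 HEPES, 2% DMSO, 30 °C for 20 min. Filter-captured product counted by phosphorimager; apparent Ki from competitive or tight-binding inhibition fits.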

T1 sequence (P35968 with tags, fused parts or gaps DEL940-989/E990V limits assumed): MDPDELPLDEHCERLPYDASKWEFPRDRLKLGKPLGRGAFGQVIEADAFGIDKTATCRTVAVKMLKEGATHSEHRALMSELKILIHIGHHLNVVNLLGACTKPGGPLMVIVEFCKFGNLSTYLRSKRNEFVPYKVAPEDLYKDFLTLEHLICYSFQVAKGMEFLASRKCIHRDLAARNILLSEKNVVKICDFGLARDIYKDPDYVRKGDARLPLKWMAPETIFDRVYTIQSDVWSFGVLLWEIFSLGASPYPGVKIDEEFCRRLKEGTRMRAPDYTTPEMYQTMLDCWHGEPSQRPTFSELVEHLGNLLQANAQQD
T3 sequence (P11802 whole entry): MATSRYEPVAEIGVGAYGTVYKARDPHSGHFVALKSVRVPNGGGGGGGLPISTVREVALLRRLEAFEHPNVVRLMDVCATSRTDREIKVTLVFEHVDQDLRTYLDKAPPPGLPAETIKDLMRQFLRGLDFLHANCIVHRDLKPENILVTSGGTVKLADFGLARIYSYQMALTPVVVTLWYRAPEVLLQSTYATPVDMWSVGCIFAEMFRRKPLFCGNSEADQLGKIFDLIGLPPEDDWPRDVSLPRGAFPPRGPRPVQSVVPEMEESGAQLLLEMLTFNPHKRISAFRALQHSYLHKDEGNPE
T3 sequence (P30281 whole entry partner): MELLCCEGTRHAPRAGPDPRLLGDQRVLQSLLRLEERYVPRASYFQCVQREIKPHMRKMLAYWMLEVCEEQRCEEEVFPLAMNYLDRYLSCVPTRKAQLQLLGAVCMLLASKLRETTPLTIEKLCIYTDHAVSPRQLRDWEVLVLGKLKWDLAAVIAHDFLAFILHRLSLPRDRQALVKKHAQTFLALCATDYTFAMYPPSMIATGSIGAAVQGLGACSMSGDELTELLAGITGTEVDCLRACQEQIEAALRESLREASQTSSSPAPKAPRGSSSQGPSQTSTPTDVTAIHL

Row | Compound | inhibition at 20 µM [1] | inhibition at 20 µM (FL-CHK1) | inhibition at 1 µM (CDK4/Cyclin D3 complex) | inhibition at 1 µM (CDK2/Cyclin A complex)
1 | Cc1cc(-c2csc(-c3sc(Nc4ccc(C(C)C)cc4)nc3N)n2)c(C)s1 | 50% | 27.4% | 76.5% | 17.5%
2 | CC(C)c1ccc(Nc2nc(N)c(-c3nc(-c4ccc5c(c4)C(C)(C)CCC5(C)C)cs3)s2)cc1 | 19% | 11.6% | 74.4% | 5.2%
3 | CC(C)c1ccc(Nc2nc(N)c(-c3nc(-c4ccc(C(F)(F)F)cc4)cs3)s2)cc1 | -4% | 3.7% | 48.3% | 8.7%
4 | CC(C)c1ccc(Nc2nc(N)c(-c3nc(-c4ccc5c(c4)CCC(=O)N5)cs3)s2)cc1 | 21% | 20.9% | 59.5% | 29.1%
5 | CC(C)c1ccc(Nc2nc(N)c(-c3nc(-c4ccccc4OC(=O)c4ccccc4)cs3)s2)cc1 | 7% | -4.2% | 56.1% | 4.8%
6 | CCc1cc2c(cc1-c1csc(-c3sc(Nc4ccc(C(C)C)cc4)nc3N)n1)C(C)(C)CCC2(C)C | 13% | 6.5% | 61.4% | 6.2%
7 | COc1ccc2nc(-c3ccccc3)c(-c3csc(-c4sc(Nc5ccc(C(C)C)cc5)nc4N)n3)cc2c1 | 15% | 14.1% | 85.1% | 26%
8 | Cc1c(-c2csc(-c3sc(Nc4ccc(C(C)C)cc4)nc3N)n2)sc2ccccc12 | 5% | -4.7% | 2.4% | 4%
9 | CC(C)c1ccc(Nc2nc(N)c(-c3nc(-c4cc(C(C)(C)C)c(O)c(C(C)(C)C)c4)cs3)s2)cc1 | -6% | 7.9% | 46.8% | 20.9%
10 | CN(C)c1ccc(Nc2nc(N)c(-c3nc(-c4cc(Br)c(Cl)s4)cs3)s2)cc1 | 18% | 22.8% | 69.1% | 17.6%
11 | CN(C)c1ccc(Nc2nc(N)c(-c3nc(-c4ccc(Cl)c([N+](=O)[O-])c4)cs3)s2)cc1 | -2% | 16% | 59.8% | 4.1%
12 | CN(C)c1ccc(Nc2nc(N)c(-c3nc(-c4ccc(-c5ccc(Cl)cc5Cl)o4)cs3)s2)cc1 | 5% | -7.6% | 35.6% | 17.7%
13 | COc1ccccc1-c1csc(-c2sc(Nc3ccc(N(C)C)cc3)nc2N)n1 | 0% | 14.8% | 8.7% | -6.4%
14 | Cc1ccc(-c2csc(-c3sc(Nc4ccc(N(C)C)cc4)nc3N)n2)cc1 | 16% | 15.2% | 61.6% | 17.7%
15 | COc1ccc(-c2csc(-c3sc(Nc4ccc(N(C)C)cc4)nc3N)n2)c(OC)c1 | 1% | 3.1% | 35.4% | 6.7%
16 | CN(C)c1ccc(Nc2nc(N)c(-c3nc(-c4ccc(Cl)cc4)cs3)s2)cc1 | 10% | 2.5% | 36.5% | 11.2%
17 | COc1ccc(OC)c(-c2csc(-c3sc(Nc4ccc(N(C)C)cc4)nc3N)n2)c1 | 13% | 14.1% | 68.7% | 15.6%
18 | CCOC(=O)c1cc(-c2csc(-c3sc(Nc4ccc(N(C)C)cc4)nc3N)n2)on1 | 9% | -4.5% | 33.7% | 13.4%

Row | Compound | inhibition at 20 µM [1] | inhibition at 20 µM (FL-CHK1) | inhibition at 1 µM (CDK4/Cyclin D3 complex) | inhibition at 1 µM (CDK2/Cyclin A complex)
19 | CN(C)c1ccc(Nc2nc(N)c(-c3nc(-c4ccc([N+](=O)[O-])cc4)cs3)s2)cc1 | 8% | 17.8% | 50.4% | 22.1%
20 | Cc1cc(-c2csc(-c3sc(Nc4ccc(N(C)C)cc4)nc3N)n2)ccc1Cl | 2% | 16.6% | 15.2% | 11.7%
21 | COc1cccc(-c2csc(-c3sc(Nc4ccc(N(C)C)cc4)nc3N)n2)c1 | 10% | 7.8% | -20.3% | 16.3%
22 | CCOC(=O)c1ccccc1-c1csc(-c2sc(Nc3ccc(N(C)C)cc3)nc2N)n1 | 25% | 38.5% | 45.9% | 19.8%
23 | Cc1c(C)c(C)c(-c2csc(-c3sc(Nc4ccc(N(C)C)cc4)nc3N)n2)c(C)c1C | 33% | 37% | 62.7% | 33.9%
24 | CN(C)c1ccc(Nc2nc(N)c(-c3nc(-c4cc(-c5ccccc5)no4)cs3)s2)cc1 | 5% | 0.8% | 29.6% | 24%
25 | Cc1c(F)cc(-c2csc(-c3sc(Nc4ccc(N(C)C)cc4)nc3N)n2)cc1Cl | 9% | 27% | 76.5% | 8.2%
26 | CN(C)c1ccc(Nc2nc(N)c(-c3nc(-c4cc(-c5ccc(Cl)c(Cl)c5)no4)cs3)s2)cc1 | 1% | -2.8% | -17.5% | 12.6%
27 | CCCCCc1ccc(-c2csc(-c3sc(Nc4ccc(N(C)C)cc4)nc3N)n2)cc1 | -8% | 9.5% | 36.2% | -6%
28 | CC(=O)Oc1ccccc1-c1csc(-c2sc(Nc3ccc(N(C)C)cc3)nc2N)n1 | 24% | -4.6% | 48.5% | 27.8%
29 | CN(C)c1ccc(Nc2nc(N)c(-c3nc(-c4c(Cl)cc(C(F)(F)F)cc4Cl)cs3)s2)cc1 | 26% | 37.5% | 82.6% | 29.1%
30 | CN(C)c1ccc(Nc2nc(N)c(-c3nc(-c4ccc(F)cc4F)cs3)s2)cc1 | 34% | 25.2% | 64.3% | 20.3%
31 | CCN(CC)c1ccc(-c2csc(-c3sc(Nc4ccc(N(C)C)cc4)nc3N)n2)cc1 | 16% | 17.4% | 57.8% | 14.6%
32 | CN(C)c1ccc(Nc2nc(N)c(-c3nc(-c4csc5ccccc45)cs3)s2)cc1 | 22% | 12.6% | 57.7% | 23.5%
33 | CN(C)c1ccc(Nc2nc(N)c(-c3nc(-c4cc(C(=O)C(Cl)(Cl)Cl)n(C)c4)cs3)s2)cc1 | 3% | 5.2% | 45.2% | 36.7%
34 | CN(C)c1ccc(Nc2nc(N)c(-c3nc(-c4cc5cc(Cl)ccc5o4)cs3)s2)cc1 | -3% | 7.6% | 29.6% | 16.9%
35 | CN(C)c1ccc(Nc2nc(N)c(-c3nc(-c4cccc(Br)c4)cs3)s2)cc1 | 17% | 14.2% | 30.1% | 29%
